Experimental findings from BindingDB's records for doi:10.1016/j.chembiol.2017.01.003 (The University of Queensland, 2017) are described below.

This experiment deals with T1, Transcription factor SOX-18 (Mouse, UniProt P43680).
T1 sequence (P43680 whole entry): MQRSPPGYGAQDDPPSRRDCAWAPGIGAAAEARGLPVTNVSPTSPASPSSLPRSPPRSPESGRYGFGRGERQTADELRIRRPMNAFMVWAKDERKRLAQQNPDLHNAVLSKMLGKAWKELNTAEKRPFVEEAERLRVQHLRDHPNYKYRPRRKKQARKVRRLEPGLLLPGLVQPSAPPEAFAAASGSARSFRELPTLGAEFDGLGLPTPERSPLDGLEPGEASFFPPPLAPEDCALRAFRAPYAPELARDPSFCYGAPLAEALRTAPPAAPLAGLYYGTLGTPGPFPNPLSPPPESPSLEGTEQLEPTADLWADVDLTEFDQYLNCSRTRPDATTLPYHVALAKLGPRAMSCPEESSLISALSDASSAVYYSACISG
The experiment in a line: Fluorescence Polarization Assay. Particulars: pH 7.5; 37 °C. On the procedure: The DNA-binding competition assay was performed in 25 μL, in black 384-well plates, using either 30 mM HEPES (N-2-Hydroxyethylpiperazine-N'-2-Ethanesulfonic Acid) (pH 7.5, with 100 mM KCl, 40 mM NaCl, 10 mM NH4OAc, 10 mM Guanidinium, 2 mM MgCl2, 0.5 mM EDTA, 0.01% NP-40) for mouse full length SOX18, or Tris-NaCl (10 mM Tris pH 8.0 and 100 mM NaCl) for SOX-HMG fragments. All experiments were performed using a 40bp double-stranded Prox1-DNA element with 5' fluorescein amidite (FAM) label (Sigma Proligo or InVitrogen). Optimum binding levels were obtained at 200 nM of mouse full length SOX18 and 60 nM of SOX-HMG fragment, in presence of 5 nM labelled DNA. Controls consisted of free labelled DNA (low FP milli-Polarization index, mP), labelled DNA in presence of protein (negative control, high mP), and labelled DNA and protein in presence of 400 time competing excess of unlabelled DNA (positive control, low mP). Depending on compound, final DMSO concentrations ranged from 2 to 3.33% v/v. After mixing protein, DNA probe and compound, plates were sealed and briskly agitated in the dark for 5 minutes at room temperature, 10 minutes at 37 °C, and 30 minutes at room temperature, before reading fluorescencepolarization on a Tecan M1000Pro (λexc = 485 nm, λem = 525 nm). All experiments were performed intriplicates.
Background: Polarisation of emitted light reports the rotation of a fluorescent probe.
Consider `O=C(O)c1c(O)cccc1CCc1ccc2ccccc2c1` [Sm4], for which the IC50 (commonly the concentration needed to halve the response being measured) turned out to be 97.5 µM. `O=C(O)c1c(O)cccc1COCCC1C=CC=CC1` (stereo unspecified) [Sm5] gave an IC50 of 1110 µM. In turn, `COc1cccc(CCCCCCc2ccccc2)c1C(=O)O` [Sm8] showed an IC50 of 327 µM. This IC50 is about 3.4-fold lower than that of the compound before. For `COc1ccc(OCC(=O)c2ccc(O)cc2O)cc1` [Sm11] the value was 3800 µM. In the case of `O=C(COc1ccc2ccccc2c1)c1ccc(O)cc1O` [Sm12] it was 2880 µM; in that of `Cc1cccc2c(=O)c3c(O)cc(O)cc3oc12` [Sm13], 481 µM.
